Counter-ions that a name gives are not always drawn.
Tested on: spontan hypertonen Ratte
Assay: antihypertensive effect (systolic blood pressure, tail cuff) in spontaneously hypertensive rats after oral administration
Format: in vivo
Conditions: genetically hypertensive rats (SHR/N/Ibm/Bm), N=6; for BP (% Änderung vs. Kontrolle), Mittelwert für Meßzeitpunkte: Stunden nach Gabe (Tage) 2h (1.+4.Tag): 2h after dosing, mean of days 1+4; for BP (% Änderung vs. Kontrolle), Mittelwert für Meßzeitpunkte: Stunden nach Gabe (Tage) 6h (1.-4.Tag): 6h after dosing, mean of days 1-4
Text: Die antihypertensive Wirksamkeit der erfindungsgemäßen Verbindungen kann am Modell der spontan hypertonen Ratte nachgewiesen werden.
Zur Bestimmung der antihypertensiven Wirkung werden die unten aufgeführten Verbindungen in den angegebenen Dosen an vier aufeinander folgenden Tagen an je 6 männlichen Ratten (Stamm SHR/N/Ibm/Bm, 250-350 g) mit genetisch bedingtem Hochdruck (systolischer Blutdruck > 180 mmHg) täglich einmal mittels Schlundsonde verabfolgt. Die Messung des Blutdrucks erfolgt jeweils 6 und gegebenenfalls 2 oder 24 Stunden nach Substanzgabe.
Die Blutdruckmessung wird in einer Wärmekammer bei 36°C vorgenommen, um eine bessere Durchblutung der Schwanzarterie zu erreichen. Hierzu werden die Tiere in perforierte Lochblechkäfige verbracht und 20 - 40 Min. nach Beginn der Aufwärmung gemessen. Zur Messung des systolischen arteriellen Drucks wird eine ringförmige Manschette mit aufblasbarer Gummimembran zur Unterbindung der Durchblutung und ein ringförmiger Piezokristallaufnehmer zur Erfassung der Pulswellen auf den Schwanz aufgeschoben. Nach erfolgter Unterbindung des Blutstroms in der Schwanzarterie wird der Manschettendruck kontinuierlich reduziert. Die Wiederkehr der Pulswellen bei Druckablassen wird automatisch als systolischer Blutdruck erkannt und ausgedruckt (Bühler, R. et al.,: Microprocessor-based automation of blood pressure measurement in the conscious rat. Proceedings of the 4th international symposium on rats with spontaneous hypertension and related studies, Rascher, R. et al. (Eds.), Schattauer Verlag, Stuttgart, New York, 1982, S. 410-413). Pulssignale und Druckverlauf werden zur Auswertung graphisch aufgezeichnet.
Zur Gewöhnung an den Meßvorgang werden die Tiere vor Substanzprüfung 14 Tage trainiert. In der zweiten Trainingswoche werden Blutdruck-Vorwerte erhoben. Tiergruppen, die Substanz erhalten, werden gegen eine Kontrollgruppe geprüft.
In der anscließenden Tabelle werden die untersuchten Verbindungen durch laufende Nummern gekennzeichnet, die mit den jeweiligen Beispielnummern übereinstimmen.
Tabelle I gibt für die Vertreter der erfindungsgemäßen Verbindungen die prozentuale Senkung des Blutdrucks (BP) nach oraler Verabreichung bei der Ratte wieder. Tabelle I

[1] = 25 µmol/kg p.o. once daily on four consecutive days
[2] = 10 µmol/kg p.o. once daily on four consecutive days

Compound	BP (% Änderung vs. Kontrolle), Mittelwert für Meßzeitpunkte: Stunden nach Gabe (Tage) 2h (1.+4.Tag) [1]	BP (% Änderung vs. Kontrolle), Mittelwert für Meßzeitpunkte: Stunden nach Gabe (Tage) 6h (1.-4.Tag) [1]	BP (% Änderung vs. Kontrolle), Mittelwert für Meßzeitpunkte: Stunden nach Gabe (Tage) 2h (1.+4.Tag) [2]	BP (% Änderung vs. Kontrolle), Mittelwert für Meßzeitpunkte: Stunden nach Gabe (Tage) 6h (1.-4.Tag) [2]	BP (% Änderung vs. Kontrolle), Mittelwert für Meßzeitpunkte: Stunden nach Gabe (Tage) 24h (1.+3.Tag) (25 µmol/kg p.o. once daily on four consecutive days, 24h after dosing, mean of days 1+3)
CCOC(=O)C1=C(C)NC(C)=C(C(=O)OCCCN2CCCC2Cc2ccc(Cl)cc2)C1c1cccc([N+](=O)[O-])c1 (racemic) [Beispiel 1, 1,4-Dihydro-2,6-dimethyl-4-(±)-(3-nitrophenyl)-pyridin-3,5-dicarbonsäure-3-ethyl-5-{3-[2-(±)-(4-chlorbenzyl)-pyrrolidinyl-1]-propyl}-ester-hydrochlorid]	-55,5%	-43,5%			
COC(=O)C1=C(C)NC(C)=C(C(=O)OCCCN2CCCC2Cc2ccc(Cl)cc2)C1c1cccc([N+](=O)[O-])c1 (single isomer, unassigned) [Beispiel 4, 1,4-Dihydro-2,6-dimethyl-4-(+)-(3-nitrophenyl)-pyridin-3,5-dicarbonsäure-3-methyl-5-{3-[2-(-)-(4-chlorbenzyl)-pyrrolidinyl-1]-propyl}-ester-hydrochlorid]			-48%	-33%	
COC(=O)C1=C(C)NC(C)=C(C(=O)OCCCN2CCCC2Cc2ccc(Cl)cc2)C1c1cccc(Cl)c1Cl (racemic) [Beispiel 8, 1,4-Dihydro-2,6-dimethyl-4-(±)-(2,3-dichlorphenyl)-pyridin-3,5-dicarbonsäure-3-methyl-5-{3-[2-(-)-(4-chlorbenzyl)-pyrrolidinyl-1]-propyl}-ester-hydrochlorid]			-39%	-25,5%	
COC(=O)C1=C(C)NC(C)=C(C(=O)OCCCN2CCCC2Cc2ccc([N+](=O)[O-])cc2)C1c1cccc([N+](=O)[O-])c1 (racemic) [Beispiel 11, 1,4-Dihydro-2,6-dimethyl-4-(+)-(3-nitrophenyl)-pyridin-3,5-dicarbonsäure-3-methyl-5-{3-[2-(±)-(4-nitrobenzyl)-pyrrolidinyl-1]-propyl}-ester-hydrochlorid]	-36,5%	-25,5%			
COC(=O)C1=C(C)NC(C)=C(C(=O)OCCCN2CCCC2Cc2ccc(Cl)cc2)C1c1cccc([N+](=O)[O-])c1 (racemic) [Beispiel 2, 1,4-Dihydro-2,6-dimethyl-4-(±)-(3-nitrophenyl)-pyridin-3,5-dicarbonsäure-3-methyl-5-{3-[2-(-)-(4-chlorbenzyl)-pyrrolidinyl-1]-propyl}-ester-hydrochlorid]	-47%	-34%			-13,5%

Source: EP0314038A1, “Pyrrolidines” (Byk Gulden Lomberg Chemische Fabrik GmbH, priority 1987, dated 1989)
